Reference: patent EP0638309A1, “Substances inhibiting proteic adp ribosilation suitable to prevent the diabetes mellitus complications” (ISTITUTO BIOCHIMICO ITALIANO GIOVANNI LORENZINI S.p.A., priority 1993, dated 1995)

Tests used:
5 YSY neuroblastoma [1] = test: Myoinositol metabolism (accumulation and incorporation) in neuroblastoma cells cultured in glucose; type: cell-based; conditions: glucose 30 mM, substance 10⁻⁵ M; for Myoinositol Incorporation: fraction linked to the membranes
Protocol: A diabetic neuropathy in vitro model has been carried out using neuroblastoma cells cultured in chronic hyperglucosemia conditions. This condition causes the typical diabetes mellitus dismetabolic effects as the polyols (sorbitol) accumulation, the myoinositol reduction and the reduction of the Na pump functionality. […] et al. - Alan R., Liss. […] In the groups from 2) to 4) glucose (30 mM) has been added to the culture renewing the culture medium and then adding glucose every 72 hours, during a three weeks period. In the group 3), at the same time of the glucose, one of the substances inhibiting proteic ADP-ribosilation reported in the table 1 (amount 10^-5 M) has been added. In the group 4), at the same time of the glucose one of the substances non inhibiting proteic ADP-ribosilation reported in the table 1 (dermatan sulphate and tolrestat) in amount 10^-5 M has been added. On the experimental groups above described also the myoinositol metabolism alteration has been studied which has been valued by the method described by Yorek et al., in "Diabetes", pag. […]

[2] = test system: substance P axonal transport; test: Substance P axonal transport in ligated sciatic nerve of alloxan-diabetic rats; type: in vivo; conditions: for anterograde and retrograde accumulation of substance P, in words: 10 mg/kg daily; for substance P content, NSc: contralateral non-ligated sciatic nerve; for substance P content, NSc / substance P content, D / substance P content, P2 / substance P content, P1: ± ES; for substance P content, D: distal segment; for substance P content, P1: proximal segment contiguous to ligature
From the text: The effectiveness verification of the substances inhibiting proteic ADP-ribosilation in preventing the diabetes mellitus complications has been carried out in vivo on rats in diabetes mellitus models induced by alloxan. With this purpose, […] substance P axonal transport in the five following experimental groups, each consisting of N° 8 rats: • 1) control group; • 2) diabetic rats group; • 3) diabetic rats group treated with vitamin K1 (substance inhibiting the proteic ADP-ribosilation); • 4) diabetic rats group treated with arachidic acid (substance inhibiting the proteic ADP-ribosilation); • 5) diabetic rats group treated with dermatan sulphate (substance non inhibiting proteic ADP-ribosilation).
The Sprague Dawley strain rats used, 250 gr weight, male sex, were supplied by Charles River.
(§1) The diabetes has been induced in the rats of the groups from 2) to 5) by a single subcutaneous injection of 100 mg/kg of alloxan dissolved in pH 4.5 0.1 M citrate-phosphate buffer solution.
The pharmacological treatment of the groups 3) and 5) respectivelly with vitamin K1 and dermatansulphate, has been carried out by intraperitoneal administration of said substances dissolved in physiologic solution at 10 mg/kg dose. […] Groups 1) and 2) have been injected with an equivalent volume of physiologic solution.
(§2) The pharmacological treatment started 7 days after the diabetes induction and prosecuted until the sacrifice with daily administration.
To estimate the axonal transport of substance P the accumulation of the substance P in three segments of sciatic nerve two millimeters long was estimated 24 hours from the ligature of the same nerve.
The operations of the sciatic nerve ligature, of the tissues withdrawal from the same and of substance P extraction from the tissues for the radioimmunologic dosage, have been carried out by the following way.
The animals were anaesthetised by intraperitoneal administration of 35 mg/kg of pentobarbital dissolved in 0.9% physiologic solution. After wright thigh epilation and cutis section the sciatic nerve was exposed at half thigh level (at least 0.8 cm from the popliteal cavity where the nerve ramifies). The ligature has been made by sterile silk thread which has been twice knotted to about half of the exposed nerve portion.
The sacrifice has been accomplished after 8 weeks from the diabetes induction, after 24 hours from the ligature.
Immediately after the sacrifice, in the former operation seat, the removal of the whole sciatic nerve has been made and finally from this the three segments each about 2 mm long have been withdrawn: segment P1 (proximal contiguous to the ligature); segment P2 (immediately above P1) and segment D (distal contiguous to the ligature), as it is shown in fig. 1.
The withdrawn tissues have been placed in polypropylene test-tubes held in ice and containing a volume of acetic acid 1 N in 10:1 ratio with the tissue weight. Then the tissues homogenization has been done by a continuous speed variation homogenizer (Heavy Stirrer, mod. 12) and a polytetrafluoroethylene pestle perfectly adherent to the test-tube walls. After the homogenate aliquots required for the tissue proteins dosage have been withdrawn (0.1 ml) the test-tubes have been immerged in a boiling water bath for 8-10 minutes, for inactivating the peptidases eventually still present in the samples, and then left for about 30 minutes at 4 °C for completely cooling.
The […] obtained by centrifugation of the homogenate at 40.000 x g for 10 minutes, has been lyophilized and the dry residue has been reconstituted in distilled water, stirred by vortex and centrifuged at 40.000 x g for 10 minutes. From the samples so reconstituted the suitable aliquots required for the substance P radioimmunological dosage have been withdrawn. […]

[3] = Body weight and glycemia control in alloxan-diabetic rats; type: in vivo; conditions: diabetic animals 8 weeks after the diabetes induction, 10 mg/kg daily; for Glycemia: caudal vein blood before sacrifice
Protocol: The effectiveness verification of the substances inhibiting proteic ADP-ribosilation in preventing the diabetes mellitus complications has been carried out in vivo on rats in diabetes mellitus models induced by alloxan.
as §1
Groups 1) and 2) have been injected with an equivalent volume of physiologic solution.
as §2
The blood samples have been withdrawn at the caudal vein level before the animals sacrifice.

transducin = test: In vitro ADP-ribosilation of retina membrane proteins G from treated diabetic rats (autoradiogram); type: in vivo; conditions: retina membrane fraction of diabetic rats treated at 50 mg/kg
From the text: A further experimentation on the silybin effect on the ADP-ribosilation of retina proteins G has been carried out. The evaluation of said proteins ribosilability has been performed by the method described by Duman et al. in J. Neurochem. (1991). pages 2124-2132.
For said experimentation the retinas withdrawn from the rats of the groups 1a), 2a) and 3a) used for the experimentation on the substance P axonal transport, were used.
The retinas have been homogenized and subdivided in cellular fractions and the membrane fraction has been selected for the ADP-ribosilation reaction in vitro.
2 which represents the autoradiogram of an electrophoretic gel obtained from said membrane cellular fraction.
Column 1P derives from the retinas of the control group rats, column 2P derives from the retinas of the diabetic rats and column 3P derives from the retinas of the diabetic rats treated with silybin at a 50 mg/kg dose.

5 YSY neuroblastoma [4] = test: Neuritogenesis after retinoic acid in neuroblastoma cells cultured in chronic hyperglucosemia (in vitro diabetic neuropathy model); type: cell-based; conditions: substance 10⁻⁵ M; for Percentage of cells with neurits after retinoic acid addition: glucose 30 mM for three weeks
Protocol: A diabetic neuropathy in vitro model has been carried out using neuroblastoma cells cultured in chronic hyperglucosemia conditions. This condition causes the typical diabetes mellitus dismetabolic effects as the polyols (sorbitol) accumulation, the myoinositol reduction and the reduction of the Na pump functionality. […] A. Shahar et al. - Alan R., Liss.
In the groups from 2) to 4) glucose (30 mM) has been added to the culture renewing the culture medium and then adding glucose every 72 hours, during a three weeks period.
In the group 3), at the same time of the glucose, one of the substances inhibiting proteic ADP-ribosilation reported in the table 1 (amount 10⁻⁵ M) has been added.
In the group 4), at the same time of the glucose one of the substances non inhibiting proteic ADP-ribosilation reported in the table 1 (dermatan sulphate and tolrestat) in amount 10⁻⁵ M has been added.
Subsequently retinoic acid (5 x 10⁻⁶ M) has been added to the cultures 1) to 4) for causing the cells neuritogenesis which has been valued by the observation at the optic microscope considering as neurit the cytoplasmatic extension having a length corresponding at least to twice as the diameter of the cell.

[5] = 10 mg/kg daily (vitamin K1, dermatansulphate intraperitoneal; arachidic acid oral), 8 weeks after induction
[6] = 24 hours after ligature, 10 mg/kg daily (vitamin K1, dermatansulphate intraperitoneal; arachidic acid oral)
[7] = proximal segment above P1, 24 hours after ligature, 10 mg/kg daily (vitamin K1, dermatansulphate intraperitoneal; arachidic acid oral)
[8] = second experiment, oral 50 mg/kg/die

Compound	Myoinositol Incorporation (5 YSY neuroblastoma [1])	Myoinositol Accumulation (5 YSY neuroblastoma [1])	also measured
O=C1NC(=O)c2cccc3cccc1c23 [1.8 Naphthalimide, 1.8-naphthalimide]	0.91 n mol/µg of protein	9.20 n mol/µg of protein	–
O=c1[nH]c2ccc([N+](=O)[O-])cc2c2ccccc12 [2-nitro-(6(5H)-phenanthridinone, 2-nitro-6(5H)-phenanthridinone]	0.81 n mol/µg of protein	8.51 n mol/µg of protein	–
Nc1ccc2c3c(cccc13)C(=O)NC2=O [4-amino-1.8-naphthalimide]	0.78 n mol/µg of protein	8.01 n mol/µg of protein	–
CC(=CCC1=C(C)C(=O)c2ccccc2C1=O)CCCC(C)CCCC(C)CCCC(C)C (stereo not drawn) [Vit K1, vitamin K1]	0.98 n mol/µg of protein	9.66 n mol/µg of protein	anterograde and retrograde accumulation of substance P, in words [2]: normalized; substance P content, NSc [2, 5]: 1.28±0.008 ng/mg of tissular protein; substance P content, D [2, 6]: 1.96±0.08 ng/mg of tissular protein; substance P content, P2 [2, 7]: 2.44±0.09 ng/mg of tissular protein; substance P content, P1 [2, 6]: 8.72±0.16 ng/mg of tissular protein; Body weight [3]: 244±12.6 gr.; Glycemia [3]: 438 ± 6.4 mg/dL
CC1=CC(=O)c2ccccc2C1=O [Vit K3, vitamin K3]	0.85 n mol/µg of protein	8.56 n mol/µg of protein	–
CCCCCCCCCCCCCCCCCCCC(=O)O [arachidic acid]	0.92 n mol/µg of protein	9.02 n mol/µg of protein	anterograde and retrograde accumulation of substance P, in words [2]: normalized; substance P content, NSc [2, 5]: 1.24±0.006 ng/mg of tissular protein; substance P content, D [2, 6]: 1.80±0.06 ng/mg of tissular protein; substance P content, P2 [2, 7]: 1.40±0.05 ng/mg of tissular protein; substance P content, P1 [2, 6]: 9.44±0.14 ng/mg of tissular protein; Body weight [3]: 239±12.6 gr.; Glycemia [3]: 471 ± 9.4 mg/dL
O=c1cc(-c2ccccc2)oc2ccccc12 [flavone]	0.67 n mol/µg of protein	6.54 n mol/µg of protein	–
CCCCC/C=C\C/C=C\CCCCCCCC(=O)O [linoleic acid (C18:2-cis-9.12), linoleic acid]	0.88 n mol/µg of protein	8.66 n mol/µg of protein	–
CC/C=C\C/C=C\C/C=C\CCCCCCCC(=O)O [linolenic acid (C18:3-cis-9.12.15), linolenic acid]	0.81 n mol/µg of protein	8.44 n mol/µg of protein	–
CCCCCCCCCCCCCC(=O)O [myristic acid]	0.85 n mol/µg of protein	8.91 n mol/µg of protein	–
CO[C@@H]1[C@@H](OC(N)=O)[C@@H](O)[C@H](Oc2ccc3c(O)c(NC(=O)c4ccc(O)c(CC=C(C)C)c4)c(=O)oc3c2C)OC1(C)C [novobiocin]	0.60 n mol/µg of protein	6.0 n mol/µg of protein	–
CCCCCCCCCCCCCCCC(=O)O [palmitic acid]	0.89 n mol/µg of protein	9.39 n mol/µg of protein	–
COc1cc(C2Oc3cc([C@H]4Oc5cc(O)cc(O)c5C(=O)[C@@H]4O)ccc3OC2CO)ccc1O (stereo partly drawn) [silybin]	–	–	transducin ribosilability, in words (transducin): maintained; substance P content, NSc [2, 8]: 2.26±0.040 ng/mg of tissular protein; substance P content, D [2, 8]: 4.05±0.071 ng/mg of tissular protein; substance P content, P2 ([2]; second experiment, proximal segment above P1, oral 50 mg/kg/die): 7.07±0.59 ng/mg of tissular protein; substance P content, P1 [2, 8]: 11.42±0.18 ng/mg of tissular protein
CCCCCCCCCCCCCCCCCC(=O)O [stearic acid]	0.95 n mol/µg of protein	9.89 n mol/µg of protein	–
COc1ccc2c(C(=S)N(C)CC(=O)O)cccc2c1C(F)(F)F [tolrestat]	–	–	prevention of the diabetic neuropathy (neuritogenesis), in words (5 YSY neuroblastoma [4]; glucose 30 mM): does not exercise any effect for preventing the diabetic neuropathy
vitamin K2 [Vit K2]	0.88 n mol/µg of protein	8.99 n mol/µg of protein	Percentage of cells with neurits after retinoic acid addition (5 YSY neuroblastoma [4]; 3 days in retinoic acid): 45%; Percentage of cells with neurits after retinoic acid addition (5 YSY neuroblastoma [4]; 7 days in retinoic acid): 65%; Percentage of cells with neurits after retinoic acid addition (5 YSY neuroblastoma [4]; 12 days in retinoic acid): 98%
